{
  "source": "patent US6319929A",
  "about": "“Suksdorfin analogs, compositions thereof, and methods for making and using thereof” (priority 1998, dated 2001)",
  "type_in_all_cases": "cell-based",
  "key": {"U937 cells": {"tested_on": "U937 cells", "assay": "Toxicity to uninfected U937 cells", "conditions": "Homo sapiens, U-937; U937 cell line", "experimental": "Suksdorfin was also tested on an acute HIV-1 infection of the promonocytic cell line, U937. This was done again to determine drug specificity but this time on a monocytic cell line.\nHIV Growth Inhibition Assay: The T cell line, H9, and the promonocytic cell line, U937, were maintained separately in continuous culture with complete medium (RPMI 1640 and […] fetal calf serum (FCS) at 5% CO2 and 37° C. Cell lines were used in experiments only when in log phase of growth; whereas, uninfected peripheral blood mononuclear cells (PBMCs) were first stimulated with PHA (1 μg/ml) for 3 days. All cell targets were incubated with HIV-1 (IIIB isolate, TCID50 10 ^4 IU/mi, at a multiplicity of infection of 0.1-0.01 IU/cell) for 1 hour at 37° C. and 5% CO2. The cell lines and PBMCs were washed thoroughly to remove unabsorbed virions and resuspended at 4×10^5 cells/ml in complete medium or complete medium with 10% v/v interleukin (Pettinato, et al. J. Amer. Pharm. Asso. […] After incubation for 4 days at 37° C., cell density of uninfected cultures was determined by counting cells in a Coulter counter to assess toxicity of the test compound. […] P24 in the culture medium was quantitated against a standard curve containing known amounts of p24. The effective (EC50) and inhibitory (IC50) concentrations (for anti-HIV activity and cytotoxicity, respectively) were determined graphically. […]"}, "[1]": {"tested_on": "HIV-2 replication in HUT-78 cells", "assay": "Suppression of virus replication during HIV-2 infection of HUT-78 cells (reverse transcriptase assay)", "excerpt": "During this experiment, HIV-2 was used. The basic assay system is identical to that used for HIV-1 except that a different virus stock was used and rather than a p24 antigen ELISA determination a reverse transcriptase assay was used to detect the presence of the virus."}, "[2]": {"tested_on": "HIV-1 replication in fresh elutriated monocytes", "assay": "HIV-1 infection of primary elutriated monocytes (p24 antigen)", "excerpt": "In order to determine if compound 16 suppressive activity was limited to only fresh T cells infected with HIV-1, elutriated monocytes were infected with HIV-1 and then cultured with various concentrations of compound 16 or AZT. […] This illustrates that the effect of the drμg is not only limited to T cells but also can effect virally infected monocytes."}},
  "data": [
    {"smiles": "CC(=O)O[C@@H]1[C@H](OC(=O)CC(C)C)c2c(ccc3ccc(=O)oc23)OC1(C)C", "note": "[Suksdorfin, suksdorfin]", "values": [
      {"measurement": "IC50", "setting": "U937 cells", "value": "> 20", "unit": "µg/mL"}
    ]},
    {"smiles": "CC1(C)Oc2ccc3ccc(=O)oc3c2[C@@H](OC(=O)[C@@]23CC[C@@](C)(C(=O)O2)C3(C)C)[C@H]1OC(=O)[C@@]12CC[C@@](C)(C(=O)O1)C2(C)C", "note": "[Compound 16, 3',4'-Di-O-(-)-Camphanoyl-(+)-cis-Khellactone]", "values": [
      {"measurement": "effect on HIV-2 replication (in words)", "setting": "[1]", "value": "no effect on the virus replication of HIV-2"},
      {"measurement": "suppression of HIV-1 replication in fresh elutriated monocytes (in words)", "setting": "[2]", "value": "able to suppress HIV-1 replication in fresh elutriated monocytes"},
      {"measurement": "p24 antigen", "setting": "[2]; Day 17, 0.0000102 μg/ml", "value": 49, "unit": "pg/mL"},
      {"measurement": "p24 antigen", "setting": "[2]; Day 17, 0.0000512 μg/ml", "value": 52, "unit": "pg/mL"},
      {"measurement": "p24 antigen", "setting": "[2]; Day 17, 0.000256 μg/ml", "value": 70, "unit": "pg/mL"},
      {"measurement": "p24 antigen", "setting": "[2]; Day 17, 0.00128 μg/ml", "value": 306, "unit": "pg/mL"},
      {"measurement": "p24 antigen", "setting": "[2]; Day 17, 0.0064 μg/ml", "value": 66, "unit": "pg/mL"},
      {"measurement": "p24 antigen", "setting": "[2]; Day 17, 0.032 μg/ml", "value": 94, "unit": "pg/mL"},
      {"measurement": "p24 antigen", "setting": "[2]; Day 17, 0.16 μg/ml", "value": 7, "unit": "pg/mL"},
      {"measurement": "p24 antigen", "setting": "[2]; Day 17, 0.8 μg/ml", "value": 6, "unit": "pg/mL"},
      {"measurement": "p24 antigen", "setting": "[2]; Day 17, 4 μg/ml", "value": 6, "unit": "pg/mL"},
      {"measurement": "p24 antigen", "setting": "[2]; Day 17, 20 μg/ml", "value": 5, "unit": "pg/mL"},
      {"measurement": "p24 antigen", "setting": "[2]; Day 28, 0.0000102 μg/ml", "value": 1536, "unit": "pg/mL"},
      {"measurement": "p24 antigen", "setting": "[2]; Day 28, 0.0000512 μg/ml", "value": 824, "unit": "pg/mL"},
      {"measurement": "p24 antigen", "setting": "[2]; Day 28, 0.000256 μg/ml", "value": 760, "unit": "pg/mL"},
      {"measurement": "p24 antigen", "setting": "[2]; Day 28, 0.00128 μg/ml", "value": 208, "unit": "pg/mL"},
      {"measurement": "p24 antigen", "setting": "[2]; Day 28, 0.0064 μg/ml", "value": 584, "unit": "pg/mL"},
      {"measurement": "p24 antigen", "setting": "[2]; Day 28, 0.032 μg/ml", "value": 0, "unit": "pg/mL"},
      {"measurement": "p24 antigen", "setting": "[2]; Day 28, 0.16 μg/ml", "value": 0, "unit": "pg/mL"},
      {"measurement": "p24 antigen", "setting": "[2]; Day 28, 0.8 μg/ml", "value": 0, "unit": "pg/mL"},
      {"measurement": "p24 antigen", "setting": "[2]; Day 28, 4 μg/ml", "value": 0, "unit": "pg/mL"},
      {"measurement": "p24 antigen", "setting": "[2]; Day 28, 20 μg/ml", "value": 0, "unit": "pg/mL"}
    ]},
    {"smiles": "Cc1cn([C@H]2C[C@H](N=[N+]=[N-])[C@@H](CO)O2)c(=O)[nH]c1=O", "note": "[AZT, azidothymidine, reference compound]", "values": [
      {"measurement": "p24 antigen", "setting": "[2]; Day 17, 0.0001 μg/ml", "value": 83, "unit": "pg/mL"},
      {"measurement": "p24 antigen", "setting": "[2]; Day 17, 0.001 μg/ml", "value": 100, "unit": "pg/mL"},
      {"measurement": "p24 antigen", "setting": "[2]; Day 17, 0.01 μg/ml", "value": 7, "unit": "pg/mL"},
      {"measurement": "p24 antigen", "setting": "[2]; Day 17, 0.1 μg/ml", "value": 5, "unit": "pg/mL"},
      {"measurement": "p24 antigen", "setting": "[2]; Day 17, 1 μg/ml", "value": 2, "unit": "pg/mL"},
      {"measurement": "p24 antigen", "setting": "[2]; Day 17, 10 μg/ml", "value": 0.1, "unit": "pg/mL"},
      {"measurement": "p24 antigen", "setting": "[2]; Day 28, 0.0001 μg/ml", "value": 0, "unit": "pg/mL"},
      {"measurement": "p24 antigen", "setting": "[2]; Day 28, 0.001 μg/ml", "value": 0, "unit": "pg/mL"},
      {"measurement": "p24 antigen", "setting": "[2]; Day 28, 0.01 μg/ml", "value": 0, "unit": "pg/mL"},
      {"measurement": "p24 antigen", "setting": "[2]; Day 28, 0.1 μg/ml", "value": 0, "unit": "pg/mL"},
      {"measurement": "p24 antigen", "setting": "[2]; Day 28, 1 μg/ml", "value": 0, "unit": "pg/mL"},
      {"measurement": "p24 antigen", "setting": "[2]; Day 28, 10 μg/ml", "value": 0, "unit": "pg/mL"}
    ]}
  ]
}
